Measured values from PubChem BioAssay (NCI).
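Test compounds were applied to cells in 96-well plates for 48 hours at 5 doses. Here, GI50 denotes the concentration required for 50% inhibition of growth. The concentration for full growth arrest is given as TGI.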

Tests used:
Experiment in all cases: DTP human tumour cell line panel, 48 h
[1] = test system: OVCAR-3 ovarian
[2] = test system: NCI-H226 lung
[3] = test system: UACC-257 melanoma
[4] = test system: MCF7 breast
[5] = test system: DU-145 prostate
[6] = test system: OVCAR-8 ovarian
[7] = test system: KM12 colon
[8] = test system: OVCAR-5 ovarian
[9] = test system: SR leukemia
[10] = test system: CAKI-1 renal

O=c1c2ccccc2[nH]n1Cc1ccccc1
TGI [1]: > 100 µM
TGI [2]: > 100 µM
TGI [3]: > 100 µM
TGI [4]: > 100 µM
TGI [5]: > 100 µM
TGI [6]: > 100 µM
TGI [7]: > 100 µM
TGI [8]: > 100 µM
TGI [9]: > 100 µM
TGI [10]: > 100 µM

COC(=O)N1CC(=O)C(C(=O)NC23CC4CC(CC(C4)C2)C3)C1 (centres undefined)
TGI [1]: > 100 µM
TGI [2]: > 100 µM
TGI [3]: > 100 µM
TGI [4]: > 100 µM
TGI [5]: > 100 µM
TGI [6]: > 100 µM
TGI [7]: > 100 µM
TGI [8]: > 100 µM
TGI [9]: > 100 µM
TGI [10]: > 100 µM

CSC1NC(c2ccccc2)=C(C#N)C(=O)N1C1OCC(OC(C)=O)C(OC(C)=O)C1OC(C)=O (centres undefined)
TGI [1]: > 100 µM
TGI [2]: > 100 µM
TGI [3]: > 100 µM
TGI [4]: > 100 µM
TGI [5]: > 100 µM
TGI [6]: > 100 µM
TGI [7]: > 100 µM
TGI [8]: > 100 µM
TGI [9]: > 100 µM
TGI [10]: > 100 µM

COc1cc(CSc2ccc(O)cc2)cc(OC)c1OC
TGI [1]: > 100 µM
TGI [2]: > 100 µM
TGI [3]: > 100 µM
TGI [4]: 66.6 µM
TGI [5]: > 100 µM
TGI [6]: > 100 µM
TGI [7]: > 100 µM
TGI [8]: > 100 µM
TGI [9]: > 100 µM
TGI [10]: > 100 µM

COc1ccc2c3c(Nc4cccc(/C(C)=N\O)c4)[nH]c4ccccc4c-3c(N=O)c2c1
GI50 [1]: 33.2 µM
TGI [1]: 88.2 µM
GI50 [2]: 54 µM
TGI [2]: > 100 µM
GI50 [3]: 41 µM
TGI [3]: > 100 µM
GI50 [4]: 73.9 µM
TGI [4]: > 100 µM
GI50 [5]: 16 µM
TGI [5]: 75.1 µM
GI50 [6]: 25.8 µM
TGI [6]: > 100 µM
GI50 [7]: 28.1 µM
TGI [7]: > 100 µM
GI50 [8]: 26.5 µM
TGI [8]: 96.9 µM
GI50 [9]: 20.4 µM
TGI [9]: > 100 µM
GI50 [10]: 29.3 µM
TGI [10]: 54.8 µM

CC(=O)Nc1ccc2nc(-c3ccccn3)c(-c3ccccn3)nc2c1
TGI [1]: > 100 µM
TGI [2]: > 100 µM
TGI [3]: > 100 µM
TGI [4]: > 100 µM
TGI [5]: > 100 µM
TGI [6]: > 100 µM
TGI [7]: > 100 µM
TGI [8]: > 100 µM
TGI [9]: > 100 µM
TGI [10]: > 100 µM

NS(=O)(=O)c1nnc(NC(=O)C23CC4CC(CC(C4)C2)C3)s1
TGI [1]: > 100 µM
TGI [2]: > 100 µM
TGI [3]: > 100 µM
TGI [4]: > 100 µM
TGI [5]: > 100 µM
TGI [6]: > 100 µM
TGI [7]: > 100 µM
TGI [8]: > 100 µM
TGI [9]: > 100 µM
TGI [10]: > 100 µM

COC1CCON1C(=O)c1ccccc1 (centres undefined)
TGI [1]: > 10 µM
TGI [2]: > 10 µM
TGI [3]: > 10 µM
TGI [4]: > 10 µM
TGI [5]: > 10 µM
TGI [6]: > 10 µM
TGI [8]: > 10 µM
TGI [9]: > 10 µM
TGI [10]: > 10 µM

CC(Oc1ccccc1Cl)C(=O)NN1C(=O)CC(=O)N(c2ccccc2)C1=S (centres undefined)
TGI [1]: > 100 µM
TGI [2]: > 100 µM
TGI [3]: > 100 µM
TGI [4]: > 100 µM
TGI [5]: > 100 µM
TGI [6]: > 100 µM
TGI [7]: > 100 µM
TGI [8]: > 100 µM
TGI [9]: > 100 µM
TGI [10]: > 100 µM

COc1ccc([N+](=O)[O-])c2c(NCCCN(C)C)ccnc12
TGI [1]: 6.78 µM
TGI [2]: 30.2 µM
TGI [3]: 12 µM
TGI [4]: > 38.8 µM
TGI [5]: 29.1 µM
TGI [6]: > 48.5 µM
TGI [7]: 24.2 µM
TGI [8]: 42.4 µM
TGI [9]: 1.97 µM
TGI [10]: 42.9 µM

c1cc(-c2ccc(-c3ccc(-c4ccc(-c5ccncc5)o4)cc3)o2)ccn1
TGI [1]: 63.8 µM
TGI [2]: 56 µM
TGI [3]: 29.6 µM
TGI [4]: 38.7 µM
TGI [5]: 28.2 µM
TGI [6]: 33.5 µM
TGI [7]: 32.2 µM
TGI [8]: 55.6 µM
TGI [9]: 58.8 µM
TGI [10]: 46.7 µM

CC1CN=C(NS(=O)(=O)c2cc(C(=O)Nc3ccc(Cl)cc3)c(Cl)cc2S)NN1 (centres undefined)
TGI [1]: > 100 µM
TGI [2]: 68.8 µM
TGI [3]: > 100 µM
TGI [4]: > 100 µM
TGI [5]: > 100 µM
TGI [6]: 59.3 µM
TGI [7]: 97.1 µM
TGI [8]: > 100 µM
TGI [9]: > 100 µM
TGI [10]: > 100 µM

CCCCCCCCCCCC(=O)OC[C@H](C[As](=O)(O)O)OC(=O)CCCCCCCCCCC
TGI [1]: 19.3 µM
TGI [2]: 38.8 µM
TGI [3]: 24.9 µM
TGI [4]: 21.9 µM
TGI [5]: 44.2 µM
TGI [6]: 27.8 µM
TGI [7]: 22 µM
TGI [8]: 32.7 µM
TGI [9]: > 100 µM
TGI [10]: 20.8 µM

CC12C3C4C1C1C2C3C41CO (centres undefined)
TGI [1]: > 100 µM
TGI [2]: > 100 µM
TGI [3]: > 100 µM
TGI [4]: > 100 µM
TGI [5]: > 100 µM
TGI [6]: > 100 µM
TGI [7]: > 100 µM
TGI [8]: > 100 µM
TGI [9]: > 100 µM
TGI [10]: > 100 µM

COc1cc2c(c(OC)c1OC)C(=O)[C@@H]1[C@H]2N1C(=O)NCCCl
TGI [1]: > 100 µM
TGI [2]: > 100 µM
TGI [3]: > 100 µM
TGI [4]: > 100 µM
TGI [5]: > 100 µM
TGI [6]: > 100 µM
TGI [7]: > 100 µM
TGI [8]: > 100 µM
TGI [9]: > 100 µM
TGI [10]: > 100 µM

COc1cc(-c2nc3ccc(N4CCN(C)CC4)cc3[nH]2)c(OC)c2[nH]c(COC(C)=O)nc12
TGI [1]: > 100 µM
TGI [2]: > 100 µM
TGI [3]: > 100 µM
TGI [4]: > 100 µM
TGI [5]: 95.5 µM
TGI [6]: > 100 µM
TGI [7]: > 100 µM
TGI [8]: > 100 µM
TGI [9]: 73 µM
TGI [10]: > 100 µM
